Assay results as given in ChEMBL document CHEMBL1201862, “PubChem BioAssay data set” (2004).
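Cells were grown in 96-well plates and exposed to each compound for 48 hours at five concentrations; endpoints were interpolated linearly between bracketing concentrations, or set to the highest concentration if not reached. GI50 = concentration required for 50% inhibition of growth.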 Calls of active or inactive are those of the source. Cut-off read from the data, not from the text of the source: active = GI50 up to about 1.1 µM and inactive = higher.

Tests used:
Assay in all cases: DTP human tumour cell line panel, 48 h
HT-29 = test system: HT-29
K562 = test system: K562
LOX IMVI = test system: LOX IMVI
LXFL 529 = test system: LXFL 529
NCI-H226 = test system: NCI-H226
NCI-H460 = test system: NCI-H460
OVCAR-3 = test system: OVCAR-3
SF-268 = test system: SF-268
SK-MEL-2 = test system: SK-MEL-2
SNB-19 = test system: SNB-19
TK-10 = test system: TK-10
U-251 = test system: U-251
UACC-62 = test system: UACC-62
XF498 = test system: XF498
BT-549 = test system: BT-549
HL-60 = test system: HL-60
KM-20L2 = test system: KM-20L2
RPMI-8226 = test system: RPMI-8226
T47D = test system: T47D
UACC-257 = test system: UACC-257

Measured: GI50

Cn1nc(-c2ccccc2NC(=O)C(F)(F)F)c(=O)n(C)c1=S
inactive: HT-29 25.8 µM | K562 15.9 µM | LOX IMVI 29.9 µM | LXFL 529 21.7 µM | NCI-H226 38.5 µM | NCI-H460 23.5 µM | OVCAR-3 18.5 µM | SF-268 25.8 µM | SK-MEL-2 26.7 µM | SNB-19 38.8 µM | TK-10 32.3 µM | U-251 27 µM | UACC-62 > 10 µM | XF498 18.9 µM

COc1ccc(Cl)cc1NC(=O)c1cccc([N+](=O)[O-])c1O
inactive: BT-549 4.37 µM | HL-60 19.1 µM | HT-29 19.8 µM | K562 32.1 µM | KM-20L2 15 µM | LOX IMVI 13.7 µM | LXFL 529 8.43 µM | NCI-H226 15 µM | NCI-H460 15.7 µM | OVCAR-3 5.19 µM | RPMI-8226 5.07 µM | SF-268 17.9 µM | SK-MEL-2 4.17 µM | SNB-19 8.97 µM | T47D 9.25 µM | TK-10 32.9 µM | U-251 11.9 µM | UACC-257 15.2 µM | UACC-62 6.82 µM

Clc1ccc(SC(/C=C/NNC2=NN=C(c3ccccc3)C(c3ccccc3)N2)c2ccccc2)cc1 (centres undefined)
inactive: HL-60 14.6 µM | HT-29 15.1 µM | K562 18.2 µM | KM-20L2 19.9 µM | LOX IMVI 21.9 µM | NCI-H226 13.4 µM | NCI-H460 26.2 µM | OVCAR-3 11.8 µM | RPMI-8226 6.64 µM | SF-268 14.4 µM | SK-MEL-2 18.7 µM | SNB-19 80.5 µM | TK-10 36.5 µM | U-251 31.2 µM | UACC-257 21.7 µM | UACC-62 27.6 µM | XF498 18.7 µM

O=C(O/N=C1/CCC/C1=C\c1ccccc1)c1ccc([N+](=O)[O-])cc1
inactive: HL-60 > 100 µM | HT-29 > 100 µM | K562 > 100 µM | KM-20L2 > 100 µM | LOX IMVI > 100 µM | LXFL 529 > 100 µM | NCI-H226 > 100 µM | NCI-H460 > 100 µM | OVCAR-3 > 100 µM | RPMI-8226 > 100 µM | SF-268 71.6 µM | SK-MEL-2 > 100 µM | TK-10 > 100 µM | U-251 > 100 µM | UACC-257 > 100 µM | UACC-62 > 100 µM

CC[N+](C)(C)c1ccc(C(=C2C=CC(=[N+](C)C)C=C2)c2ccc(N(C)C)cc2)cc1
inactive: HL-60 2.4 µM | HT-29 4.93 µM | K562 3.12 µM | LOX IMVI 5.2 µM | LXFL 529 6.04 µM | NCI-H226 19.7 µM | NCI-H460 5.74 µM | OVCAR-3 10.5 µM | RPMI-8226 2.19 µM | SF-268 10.8 µM | SK-MEL-2 21.1 µM | TK-10 28 µM | U-251 3.94 µM | UACC-257 13.2 µM | UACC-62 6.55 µM | XF498 15.8 µM

Cc1c(C(=O)O)n(C)c(=O)n(C)c1=O
inactive: HL-60 > 100 µM | HT-29 > 100 µM | K562 > 100 µM | KM-20L2 > 100 µM | LOX IMVI > 100 µM | LXFL 529 > 100 µM | NCI-H226 > 100 µM | NCI-H460 > 100 µM | OVCAR-3 > 100 µM | SF-268 > 100 µM | SK-MEL-2 > 100 µM | SNB-19 > 100 µM | TK-10 > 100 µM | U-251 > 100 µM | UACC-257 > 100 µM | UACC-62 > 100 µM | XF498 > 100 µM
